“Also recorded” adds a separate entry of the source. Counter-ions that a name gives are not always drawn.
Tests used:
[1] = tested on: local anesthesia by 2% polocaine (mepivacaine hydrochloride) with levonordefrin; assay: Reversal of local anesthesia by LARA versus saline vehicle, bilateral injection in human subjects; format: in vivo; conditions: three subjects, 0.05 mg/ml phentolamine mesylate (0.08 mg)
Protocol: An injection of the physiological saline vehicle (without phentolamine mesylate) served as the control. […] This was followed by injection of the phentolamine mesylate containing local anesthetic reversal agent (LARA) into one side of the oral cavity, and injection of the saline vehicle (control) solution into the opposite side of the oral cavity. The time to reversal of the local anesthetic effect on both sides was then recorded to determine whether there is a difference between the two sides.
The local anesthetic used was 2% polocaine (mepivacaine hydrochloride) with levonordefrin (1:20,000=0.05 mg/ml) (levonordefrin injection, USP) (Astra USA, Inc., Westborough, Mass. 01581). Levonordefrin is a sympathomimetic amine with a pharmacological profile similar to that of epinephrine, but with a lower potency.
Three healthy, male human subjects, age 34-50, volunteered to have local anesthetic injected in the mouth bilaterally under the lip in an easily repeatable location. The exact time of each injection was recorded. The position chosen was above (apical) the prominence of the root of the upper cuspid teeth. This is a common site selected to numb the cuspids, lateral incisors and upper lip. The volume of the local anesthetic injected was 1.7+0.1 ml on each side of the mouth. […]

[2] = Wide-range pH-stability profiling at 40° C.; format: physicochemical; conditions: 0.1 mg/ml, pH 2-8, 50 mM phosphate or acetate, FIG. 1
Protocol: (§1) The drug is monitored at a detection wavelength of 232 nm.
All samples were stored in the dark.
The phosphate buffers were prepared by adding phosphoric acid (3.40 ml) to de-ionized (DI) water, adjusting the pH with 2 N NaOH, and bringing the volume to 1 L in a volumetric flask. The acetate buffers were prepared by adding acetic acid (2.95 ml) to water, adjusting the pH value with 2 N NaOH, and bringing the volume to 1 L in a volumetric flask.
Measurements were performed for pH after samples had been analyzed by HPLC.
In all stability studies, glass serum vials with rubber closures and flip-top seals were used for storage of the samples to minimize fluid loss. The weights of samples were measured at the beginning of the experiment, prior to sampling for analysis, and after resealing the vials to monitor for any weight loss due to heating. No significant weight loss was observed.
At each pH, the concentration was divided by the corresponding initial concentration (day 0) to obtain the percent recovery. The percent recovery was plotted against time for calculation of first-order rate kinetics. The slope of each pH line was calculated as the rate constant and plotted against pH to obtain a wide-range pH-stability profile.

[3] = Effect of additives on stability, pH 3.5, 60° C.; format: physicochemical; conditions: 10 mM Sodium Acetate
Protocol: as §1
The pH value of the solutions was readjusted to pH 3.5, as required.
All samples were placed in 10 ml glass serum vials, stoppered with rubber closures with an inert coating (Daikyo Flurotec by WEST Pharmaceutical), and sealed with flip-top caps after sampling. Vials were placed at 60° C. after the weights were recorded.
Sampling occurred at the initial time point and on days 2, 7, and 14.
Vials were weighed, sampled, sealed, re-weighed, and replaced under the selected storage condition until testing at the subsequent time point.

[4] = systemic doses, usually with marked hypotensive episodes; cited from earlier work
[5] = Tonicity testing by vapor pressure osmometer; format: physicochemical; conditions: 0.5 mg/ml disodium EDTA, pH 3.5
Description: A vapor pressure osmometer (Westcore Model 5500) was used to measure the osmolarity of the solutions as well as a control of Normal Saline solution (0.9% sodium chloride, USP). The tonicity of the phentolamine solutions was represented by osmolarity. The measured osmolarity was plotted against d-mannitol concentration. A linear relationship was obtained between the osmolarity and d-mannitol concentration. The concentration of d-mannitol required to achieve the same osmolarity as the Normal Saline solution was calculated for the 10 or 50 mM sodium acetate buffered solution.

[6] = Effect of sodium acetate buffer concentration on stability, pH 3.5, 60° C.; format: physicochemical
Protocol: as §1
Tightly sealed glass vials containing the test solutions were placed in an oven at 40° C. or 60° C. All samples were stored in the dark. Aliquots were removed at designated time points for HPLC analysis and pH measurement.
In conjunction with HPLC analysis, pH was measured. The measurement was performed using the same samples as used for the HPLC analysis. The pH meter was calibrated using pH 4.00 and 7.00 buffer standards prior to each measurement.
Samples were incubated at 60° C. with scheduled testing performed at day 0, 2, 7, and 14. The various buffer concentrations were prepared by diluting the 50 mM buffer with water and re-examining the pH value to determine if the pH 3.5 was constant. Measurements of pH were performed after HPLC analysis of the samples.

**Q.** With `Cc1ccc(N(CC2=NCCN2)c2cccc(O)c2)cc1` [Phentolamine Mesylate, phentolamine mesylate] as the molecule, how does the side-effects [1] read?
**A.** The side-effects was “no side-effects of any kind”.

**Q.** And the “wide-range pH-stability profile (rate of degradation)” value [2]?
**A.** Its value is “significant increase in rate of degradation was observed at pH above 7; also recorded: samples prepared in acetate buffers appeared to be more stable than their counterparts in the phosphate buffers”.

**Q.** And the “Rate Constant (zero-order)” value ([3]; EDTA, 0.7 mg/ml)?
**A.** The value was 0.438 µg/mL/day.

**Q.** And the “Phentolamine Concentration” value ([3]; EDTA, 0.7 mg/ml, Day 0)?
**A.** The value was 106 µg/mL.

**Q.** And the “Phentolamine Concentration” value ([3]; EDTA, 0.7 mg/ml, Day 2)?
**A.** Its value is 103 µg/mL.

**Q.** And the “Rate Constant (zero-order)” value ([3]; Glycerol, 25% w/v)?
**A.** The value was 0.726 µg/mL/day.

**Q.** What about the “Rate Constant (zero-order)” value ([3]; NaCl, 50 mg/ml) of the same molecule?
**A.** Its value is 1.663 µg/mL/day.

**Q.** What about the “Rate Constant (zero-order)” value ([3]; Niacinamide, 50 mg/ml) of the same molecule?
**A.** The value was -0.026 µg/mL/day.

**Q.** What about the “Rate Constant (zero-order)” value ([3]; No additive) of the same molecule?
**A.** Its value is 1.027 µg/mL/day.

**Q.** What about the “Rate Constant (zero-order)” value ([3]; Propylene glycol, 25% w/v) of the same molecule?
**A.** The value was 1.019 µg/mL/day.

**Q.** And the “Rate Constant (zero-order)” value ([3]; Sodium metabisulfite, 0.5 mg/ml)?
**A.** Its value is 1.903 µg/mL/day.

**Q.** What about the “Rate Constant (zero-order)” value ([3]; d-Mannitol, 40 mg/ml) of the same molecule?
**A.** Its value is 0.416 µg/mL/day.

**Q.** And the “Rate Constant (zero-order)” value ([3]; α-Cyclodextran, 50 mg/ml)?
**A.** Its value is 0.501 µg/mL/day.

**Q.** What about the “side effects reported in package insert” value [4] of the same molecule?
**A.** The value was “Myocardial infarction, cerebrovascular spasm, and cerebrovascular occlusion have been reported”.

**Q.** And the “Calculated % Mannitol for Isotonicity” value ([5]; 10 mM sodium acetate)?
**A.** The value was 5.03%.

**Q.** What about the “Calculated % Mannitol for Isotonicity” value ([5]; 50 mM sodium acetate) of the same molecule?
**A.** The value was 4.39%.

**Q.** What about the “Measured Osmolality” value ([5]; 2% Mannitol, 10 mM sodium acetate) of the same molecule?
**A.** The value was 176 mmol/kg.

**Q.** What about the “Measured Osmolality” value ([5]; 2% Mannitol, 50 mM sodium acetate) of the same molecule?
**A.** Its value is 193 mmol/kg.

**Q.** And the “Measured Osmolality” value ([5]; 3% Mannitol, 10 mM sodium acetate)?
**A.** The value was 213 mmol/kg.

**Q.** And the “Measured Osmolality” value ([5]; 3% Mannitol, 50 mM sodium acetate)?
**A.** The value was 234 mmol/kg.

**Q.** What about the “Measured Osmolality” value ([5]; 4% Mannitol, 10 mM sodium acetate) of the same molecule?
**A.** The value was 253 mmol/kg.

**Q.** And the “Measured Osmolality” value ([5]; 4% Mannitol, 50 mM sodium acetate)?
**A.** The value was 276 mmol/kg.

**Q.** What about the pH ([6]; Sodium Acetate 0 mM (un-buffered), Day 0) of the same molecule?
**A.** The pH was 3.6.

**Q.** What about the pH ([6]; Sodium Acetate 0 mM (un-buffered), Day 2) of the same molecule?
**A.** Its pH is 4.4.

**Q.** And the pH ([6]; Sodium Acetate 0 mM (un-buffered), Day 7)?
**A.** The pH was 5.1.

**Q.** What about the pH ([6]; Sodium Acetate 0 mM (un-buffered), Day 14) of the same molecule?
**A.** The pH was 5.3.

**Q.** And the pH ([6]; Sodium Acetate 5 mM, Day 0)?
**A.** The pH was 3.5.

**Q.** And the pH ([6]; Sodium Acetate 5 mM, Day 2)?
**A.** Its pH is 3.8.

**Q.** And the pH ([6]; Sodium Acetate 5 mM, Day 7)?
**A.** The pH was 3.8.

**Q.** And the pH ([6]; Sodium Acetate 5 mM, Day 14)?
**A.** The pH was 3.8.

**Q.** And the pH ([6]; Sodium Acetate 10 mM, Day 0)?
**A.** Its pH is 3.5.

**Q.** What about the pH ([6]; Sodium Acetate 10 mM, Day 2) of the same molecule?
**A.** Its pH is 3.7.

**Q.** And the pH ([6]; Sodium Acetate 10 mM, Day 7)?
**A.** Its pH is 3.8.

**Q.** And the pH ([6]; Sodium Acetate 10 mM, Day 14)?
**A.** The pH was 3.7.

**Q.** What about the pH ([6]; Sodium Acetate 50 mM, Day 0) of the same molecule?
**A.** The pH was 3.5.

**Q.** And the pH ([6]; Sodium Acetate 50 mM, Day 2)?
**A.** The pH was 3.6.

**Q.** And the pH ([6]; Sodium Acetate 50 mM, Day 7)?
**A.** Its pH is 3.6.

**Q.** What about the pH ([6]; Sodium Acetate 50 mM, Day 14) of the same molecule?
**A.** The pH was 3.6.
